Data on one compound can be found in BindingDB's records for doi:10.1126/science.279.5347.77 (Abbott Laboratories, 1998).

The target in the experiment is Neuronal acetylcholine receptor subunit alpha-4 (Rattus norvegicus, UniProt P09483).
Sequence of Neuronal acetylcholine receptor subunit alpha-4 (P09483 whole entry): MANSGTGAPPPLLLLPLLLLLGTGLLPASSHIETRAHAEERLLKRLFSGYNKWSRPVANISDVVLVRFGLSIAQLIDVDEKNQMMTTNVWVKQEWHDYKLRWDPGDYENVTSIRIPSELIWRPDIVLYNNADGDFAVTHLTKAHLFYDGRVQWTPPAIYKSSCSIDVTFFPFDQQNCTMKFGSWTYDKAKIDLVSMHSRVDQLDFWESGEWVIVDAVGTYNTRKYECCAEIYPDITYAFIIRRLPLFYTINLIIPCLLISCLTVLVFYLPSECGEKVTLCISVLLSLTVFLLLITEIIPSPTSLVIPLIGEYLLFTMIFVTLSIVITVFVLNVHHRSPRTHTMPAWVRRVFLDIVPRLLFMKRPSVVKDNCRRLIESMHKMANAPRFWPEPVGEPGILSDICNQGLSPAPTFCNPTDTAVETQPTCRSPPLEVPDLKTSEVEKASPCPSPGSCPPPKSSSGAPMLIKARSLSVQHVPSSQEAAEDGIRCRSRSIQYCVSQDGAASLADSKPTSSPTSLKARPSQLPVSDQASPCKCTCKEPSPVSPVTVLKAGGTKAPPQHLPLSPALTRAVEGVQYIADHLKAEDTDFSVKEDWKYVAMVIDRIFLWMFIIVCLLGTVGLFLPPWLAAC

The term Ki denotes the equilibrium dissociation constant of an inhibitor or competing ligand from its target. In turn, `Clc1ccc(OC[C@@H]2CCN2)cn1` had a Ki of 0.03 nM.
